In one test the target is F508del V470 CFTR (Homo sapiens, UniProt P13569, DEL508-508). Kind of test: FRT Ion Flux Assay of F508del CFTR Potentiation. It is filed as cell-based. The settings on record: FRT cells expressing F508del V470 CFTR and halide-sensitive YFP, forskolin 20 uM, 30 min.
The target of another test is CFTR (Homo sapiens, UniProt P13569). Kind of test: Ussing Chamber Electrophysiology Assay of CFTR Potentiation in CF Bronchial Epithelial Cells. It is filed as cell-based. The following applies: primary CF hBE cells, short-circuit current, scaled to DMSO (0%) and positive control potentiator (100%). An outline of the steps: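 Primary F508del/F508del (27 °C) or G551D/F508del (35 °C) CF hBE cultures, >30 days at air/liquid interface, short-circuit current under voltage clamp in HEPES saline. Sequential amiloride 30 uM, forskolin 10 uM, four rising compound concentrations, CFTRinh-172 20 uM, 20-25 min apart; scaled to DMSO (0%) and maximal positive-control potentiator response (100%).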

The target in the next test is G551D (Homo sapiens, UniProt P13569, G551D). The following applies: G551D patients; cited from earlier work.
The target of another test is F508del (Homo sapiens (Human), UniProt P13569, DEL508-508). The settings on record: F508del homozygote patients; cited from earlier work.
Sequence of F508del (P13569 other isoform, or with tags, fused parts or gaps del F508-F508): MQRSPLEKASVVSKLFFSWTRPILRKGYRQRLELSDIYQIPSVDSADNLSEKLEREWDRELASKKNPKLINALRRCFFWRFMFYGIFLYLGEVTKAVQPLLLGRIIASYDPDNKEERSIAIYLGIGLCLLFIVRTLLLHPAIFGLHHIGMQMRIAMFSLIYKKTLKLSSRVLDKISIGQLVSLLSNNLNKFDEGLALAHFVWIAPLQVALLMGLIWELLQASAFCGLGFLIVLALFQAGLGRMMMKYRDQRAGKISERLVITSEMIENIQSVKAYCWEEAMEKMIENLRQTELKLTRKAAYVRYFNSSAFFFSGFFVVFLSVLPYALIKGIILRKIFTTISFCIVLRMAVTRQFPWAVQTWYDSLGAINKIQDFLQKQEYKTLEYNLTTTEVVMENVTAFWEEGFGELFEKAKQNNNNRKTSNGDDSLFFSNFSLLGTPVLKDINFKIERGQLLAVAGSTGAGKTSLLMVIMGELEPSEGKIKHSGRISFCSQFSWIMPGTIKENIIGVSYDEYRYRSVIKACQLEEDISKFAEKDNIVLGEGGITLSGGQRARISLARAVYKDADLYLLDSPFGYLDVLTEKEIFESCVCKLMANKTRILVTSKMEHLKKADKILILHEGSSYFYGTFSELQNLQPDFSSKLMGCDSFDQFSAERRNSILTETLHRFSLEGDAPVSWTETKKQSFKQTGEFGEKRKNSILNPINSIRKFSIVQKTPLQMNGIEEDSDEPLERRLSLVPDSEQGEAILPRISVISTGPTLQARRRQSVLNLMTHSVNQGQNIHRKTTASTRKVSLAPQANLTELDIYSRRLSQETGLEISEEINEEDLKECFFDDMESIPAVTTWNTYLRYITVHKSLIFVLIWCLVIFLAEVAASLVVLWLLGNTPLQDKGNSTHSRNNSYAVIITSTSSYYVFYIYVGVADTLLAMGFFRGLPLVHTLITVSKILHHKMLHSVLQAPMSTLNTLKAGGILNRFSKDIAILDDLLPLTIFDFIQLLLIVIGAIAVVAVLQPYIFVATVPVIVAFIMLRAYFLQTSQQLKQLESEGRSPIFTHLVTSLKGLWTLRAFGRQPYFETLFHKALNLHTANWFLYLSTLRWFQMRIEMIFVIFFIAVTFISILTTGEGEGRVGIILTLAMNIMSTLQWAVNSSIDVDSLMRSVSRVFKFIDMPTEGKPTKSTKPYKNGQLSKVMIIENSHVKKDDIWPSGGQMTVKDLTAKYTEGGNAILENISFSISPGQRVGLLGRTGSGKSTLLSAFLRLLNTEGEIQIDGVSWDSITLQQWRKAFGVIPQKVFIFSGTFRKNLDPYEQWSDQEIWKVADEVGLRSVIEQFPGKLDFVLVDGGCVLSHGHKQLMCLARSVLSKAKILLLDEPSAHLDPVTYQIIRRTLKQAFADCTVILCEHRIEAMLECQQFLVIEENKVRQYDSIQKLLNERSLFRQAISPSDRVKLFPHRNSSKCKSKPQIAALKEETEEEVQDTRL

Structures can show the parent of a compound that is named as a salt.

Sequence of F508del V470 CFTR (P13569 with tags, fused parts or gaps DEL508-508): as the sequence (P13569 other isoform, or with tags, fused parts or gaps del F508-F508) above

The term EC50 denotes the midpoint of the concentration-response curve. `CCC(c1cn(-c2ccccc2F)nn1)c1cc(-c2cncnc2OC)c2c(N)ncnn12` (stereo not drawn) [Example 83, 7-{1-[1-(2-fluorophenyl)-1H-1,2,3-triazol-4-yl]propyl}-5-(4-methoxypyrimidin-5-yl)pyrrolo[2,1-f][1,2,4]triazin-4-amine]: the EC50 at F508del V470 CFTR was determined as 18.4 nM; on CFTR it was 16 nM.
With `Nc1ncnn2c(Cc3cn(-c4ccccc4F)nn3)nc(-c3ccc(Cl)cc3)c12` [Example 93, 5-(4-Chlorophenyl)-7-{[1-(2-fluorophenyl)-1H-1,2,3-triazol-4-yl]methyl}imidazo[5,1-f][1,2,4]triazin-4-amine trifluoroacetate], the EC50 on F508del V470 CFTR stood at 54.4 nM; at CFTR, 116 nM.
As to `CC(C)(C)c1cc(C(C)(C)C)c(NC(=O)c2c[nH]c3ccccc3c2=O)cc1O` [Kalydeco®, ivacaftor], the “percent predicted FEV1 increased” value on G551D is 10-13%. For the same compound, the improvement with monotherapy result on F508del was “did not lead to any appreciable improvement”.

The record behind these values is patent publication US10131670B2, “Bicyclic heteroaryl derivatives as CFTR potentiators” (CYSTIC FIBROSIS FOUNDATION THERAPEUTICS, INC., priority 2016, dated 2018).
